Test results from paper PMC12372887, “Mechanism and cellular actions of the potent AMPK inhibitor BAY-3827” (Science Advances, 2025).

Test system: HEK293 cells
Experiment: RSK signaling immunoblot in HEK293 cells
Type: cell-based, human
Procedure: HEK293 cells (Invitrogen, R75007) were seeded at a density of 500,000 cells per well in six-well cell culture plates (Corning Incorporated Costar #3516) in Dulbecco’s modified Eagle medium (DMEM) high-glucose + GlutaMAX Supplement, pyruvate (Thermo Fisher Scientific, catalog no. 31966-021) containing penicillin G (100 U/ml), streptomycin (100 μg/ml), and 10% (v/v) FBS. Once attached, the next day, the media were changed to serum-free and the cells were starved for 16 hours followed by compound treatment with BAY-3827, BI-D1870 (MedChemExpress, #HY-10510) ± 10 μM MK-2206 dihydrochloride (MedChemExpress, #HY-10358) with 30 min incubation at 37°C followed by coincubation with […] (MedChemExpress, #HY-18739) or vehicle for additional 30 min with final assay DMSO concentration of 0.13%. All cell lines used here were tested monthly for mycoplasma and tested negative.
Following compound treatment, the cells were washed with room temperature PBS and lysed on ice with the addition of lysis buffer [50 mM tris-HCl (pH 7.5), 150 mM NaCl, 1 mM EDTA, 1 mM EGTA, 0.27 M sucrose, 1% w/v Triton X-100, 20 mM glycerol-2 phosphate disodium, 50 mM NaF, and 5 mM Na4P2O7.10 H2O] containing proteases and phosphatase inhibitors [0.5 mM phenylmethylsulfonyl fluoride (PMSF), 1 mM benzamidine HCl, leupeptin (1 μg/ml), pepstatin A (1 μg/ml), 1 μM microcystin-LR, 1 mM Na3VO4, and 1 mM DTT]. Lysates were centrifuged at 10,000g, 4°C for 10 min, and protein concentration of the supernatant was determined with the Pierce Bradford Protein Assay Kit (Thermo Fisher Scientific, #23200) and read on the Hidex Plate Reader (software version 0.5.64.0). Samples were prepared in Laemmli sample buffer (tris 200 mM, 8% SDS, EDTA 2 mM, and 40% glycerol) supplemented with 10% DTT and boiled for 5 min at 100°C. Ten micrograms of protein per sample was run on a Criterion tris-glycine polyacrylamide gel (Bio-Rad, #5678095) and transferred to a nitrocellulose membrane. For cell signaling experiments in HEK293 cells, the samples were run on a Criterion TGX stain-free precast gel (Bio-Rad, catalog no. 5678085) with transfer to a polyvinylidene difluoride membrane performed in Bio-Rad Criterion blotter (#1704071) using tris-glycine transfer buffer (Bio-Rad, #1610734) following the manufacturer’s instructions. The membranes were probed at 4°C overnight in a 4% BSA TBS-T solution containing 0.02% sodium azide with the following antibodies where appropriate: Phospho-ACC (Ser^79) (1:1000, Cell Signaling Technology, #3661S), ACC (C83B10) (1:1000, Cell Signaling Technology, #3676S), phospho-Raptor (Ser^792) (1:1000, Cell Signaling Technology, #2083S), Raptor (24C12) (1:1000, Cell Signaling Technology, #2280S), GSK3αβ (1:2000, Sigma-Aldrich, #04-903), phospho-GSK3αβ (Ser^21/9) (D17D2) (1:1000, Cell Signaling Technology, #8566S), ERK1/2 (137F5) (1:1000, Cell Signaling Technology, #4695), phospho-ERK1/2 (Thr^202/Tyr^204) (D13.14.4E) (1:1000, Cell Signaling Technology, #4370), phospho-AMPKα (Thr^172) (40H9) (1:1000, Cell Signaling Technology, #2535S), AMPKα (1:1000, Cell Signaling Technology, #2532S), anti–glyceraldehyde-3-phosphate dehydrogenase antibody (1:5000, Cell Signaling Technology, #G8795), and vinculin (1:1000, Cell Signaling Technology, #13901). Membranes were scanned using the Odyssey Fc LiCor system (exposure time, 30 s) with densitometry analysis performed using LiCor Image Studio Lite normalizing to control loading protein. Figures were made using GraphPad Prism v10.

`CCc1ccccc1C(=O)Nc1n[nH]c2c(C)c(F)c(C3C(C#N)=C(C)N(C)C(C)=C3C#N)cc12` [BAY-3827, N-[5-(3,5-dicyano-1,2,6-trimethyl-4H-pyridin-4-yl)-6-fluoro-7-methyl-1H-indazol-3-yl]-2-ethylbenzamide] was tested, and the “PMA-stimulated pGSK3αβ (surrogate of RSK activity)” value (10 μM, in the presence of MK-2206 (10 μM)) was “inhibited to the same extent” and the ACC1 phosphorylation (serum-starved HEK293, 1 and 10 μM) was “dose-dependent reduction”.
